Measured values reported in publication PMC2784637 (Biochemistry, 2009).

Biological target: T1, cyt bc1 (ubihydroquinone:cytochrome c oxidoreductase) (Rhodobacter capsulatus, UniProt D5ANZ2+D5ANZ3)
T1 sequence (D5ANZ3 2-437): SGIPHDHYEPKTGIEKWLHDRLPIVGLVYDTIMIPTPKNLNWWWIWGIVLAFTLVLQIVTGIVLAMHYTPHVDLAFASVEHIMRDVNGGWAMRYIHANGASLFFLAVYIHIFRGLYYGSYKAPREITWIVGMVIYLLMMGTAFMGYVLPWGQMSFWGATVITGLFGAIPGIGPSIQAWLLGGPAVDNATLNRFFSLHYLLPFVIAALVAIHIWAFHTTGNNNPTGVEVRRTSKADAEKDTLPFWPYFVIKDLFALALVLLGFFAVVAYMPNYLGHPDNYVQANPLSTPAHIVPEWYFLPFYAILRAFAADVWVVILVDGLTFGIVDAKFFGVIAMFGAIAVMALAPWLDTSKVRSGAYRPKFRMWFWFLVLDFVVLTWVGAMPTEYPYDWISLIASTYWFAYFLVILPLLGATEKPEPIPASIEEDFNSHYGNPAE
T1 sequence (D5ANZ2 1-191): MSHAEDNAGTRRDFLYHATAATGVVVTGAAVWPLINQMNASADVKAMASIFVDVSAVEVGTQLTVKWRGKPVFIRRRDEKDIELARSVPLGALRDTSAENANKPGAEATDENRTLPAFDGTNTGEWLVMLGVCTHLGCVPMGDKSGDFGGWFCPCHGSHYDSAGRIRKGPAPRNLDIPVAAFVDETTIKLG
T1 sequence (D5ANZ4 22-279 partner): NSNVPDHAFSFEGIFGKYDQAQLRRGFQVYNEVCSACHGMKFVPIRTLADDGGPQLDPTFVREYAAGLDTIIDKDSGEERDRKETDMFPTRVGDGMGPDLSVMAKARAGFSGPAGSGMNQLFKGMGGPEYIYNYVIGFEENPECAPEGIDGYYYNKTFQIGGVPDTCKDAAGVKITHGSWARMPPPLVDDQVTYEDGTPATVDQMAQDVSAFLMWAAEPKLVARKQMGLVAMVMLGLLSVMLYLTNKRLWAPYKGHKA
Assay: light-activated cyt b reduction and cyt c rereduction kinetics
Assay type: biochemical
Details: chromatophore membranes, 10 uM, pH 7.0, Eh 100 mV; Qo site

For CO/C(=C/C(N)=O)[C@H](C)[C@H](/C=C/c1csc(-c2csc([C@@H](C)/C=C/C=C/C(C)C)n2)n1)OC [myxothiazol], the “light-activated cyt b reduction and cyt c rereduction kinetics” value was “addition of myxothiazol completely abolished the kinetics by displacing the Qo site occupant”.
